In patent US8252832B2, “Kinesin inhibitors as cancer therapeutics” (Novartis AG, priority 2007, dated 2012):
Read-outs that look alike come from different tables or passages of the source.

Tests used:
Assay in all cases: CellTiter-Glo, NCI60 panel
Assay type in all cases: cell-based
RXF 393 = conditions: Renal; for GI50: Homo sapiens
Source text: (§1) Identification of tumor types that are the most sensitive to the KSP inhibitors of the present invention can be accomplished using an unbiased approach that uses several cell-based assays. The assays chosen were as follows: • CellTiter-Glo®. This is an assay designed to measure ATP concentration in a cell culture, and can be correlated to cell number. Briefly CellTiter-Glo® (Promega Corporation) is a homogeneous method using the single CellTiter-Glo® reagent to detect ATP wherein ATP in the assay drives the activity of a thermostable luciferase to create a luminescent signal which can then be measured and correlated with the number of viable cells. Briefly, for adherent cells, 1,000 to 5,000 cells/well were plated in 96-well plates (100 μl/well) and let to adhere for 24 hours before being treated with drug. For non-adherent cells, 1,000 to 10,000 cells/well were plated in 96-well plates (100 μl/well) and immediately treated with drug. Drug dilutions were prepared in DMSO at 1000 times the final concentration. These dilutions were then diluted 1/100 in growth media before being added to the cells (11 μl/well) to achieve the desired final concentration. After 48 h in a 37° C. tissue culture incubator, the plates were processed for the CellTiter-Glo®assay according to the manufacturer's instructions. Protocol for a 72 hour cell proliferation assay: The 72 hour assay was performed the same way as the 48 hour assay except for the following modifications: For adherent cells, 500 to 5,000 cells/well were plated in 96-well plates (90 μl/well cell growth media) and left to adhere for 24 hours before being treated with drug. For non-adherent cells, 1,000 to 10,000 cells/well were plated in 96-well plates (90 μl/well cell growth media) and immediately treated with drug. Data values presented represent the concentration of test compound required for a 50% reduction in growth. • LDH release. The Cytotoxicity Detection KitPLUS (LDH) assay (Roche Diagnostics, Manheim, Germany) measures the amount of LDH released in the media by dying cells; LDH catalyzes the conversion of lactate into pyruvate. The enzymatic reaction is coupled to a chemical reaction that uses a tetrazolium salt to form a formazan that is red and can be detected by its absorbance at 490 nm. This assay measures the amount of cell death after drug treatment. Cells were plated at 10,000 cells/well in 96-well plates (100 μl/well). Adherent cells were let to adhere for 24 hours before being treated with drug, whereas non-adherent cells were immediately treated with drug. Drug dilutions were prepared in DMSO at 1000 times the final concentration. These dilutions were then diluted 1/100 in growth media before being added to the cells (11 μl/well) to achieve the desired final concentration. After 48 h in a 37° C. tissue culture incubator, the plates were processed for the Cytotoxicity Detection KitPLUS (LDH) assay according to the manufacturer's instructions. The media only values were subtracted from all the data points before analysis. Data values presented correspond to the compound concentration wherein LDH output is at half maximal level. • Caspase-Glo® 3/7. The Caspase-Glo® 3/7 Assay (Promega Corporation) is a homogeneous luminescent assay that measures caspase-3/7 activities. The assay provides a proluminescent caspase-3/7 DEVD-aminoluciferin substrate and a thermostable luciferase in a reagent optimized for caspase-3/7 activity, luciferase activity and cell lysis. Adding the single Caspase-Glo® 3/7 Reagent results in cell lysis, followed by caspase cleavage of the substrate. This liberates free aminoluciferin, which is consumed by the luciferase, generating a luminescent signal. The signal is proportional to caspase-3/7 activity. Data values presented correspond to the compound concentration wherein caspase 3/7 activity is at half maximal level. […]

NCI-H322M = conditions: NSCL; for GI50: Homo sapiens
Source text: as §1

OVCAR-8 = conditions: Ovarian; for GI50: Homo sapiens
Source text: as §1

K-562 = conditions: for GI50: Homo sapiens, K562, Leukemia
Source text: as §1

BT-474 = conditions: Breast; for GI50: Homo sapiens
Source text: as §1

MOLT-4 = conditions: Leukemia; for GI50: Homo sapiens
Source text: as §1

MDA-MB-231 = conditions: Breast; for GI50: Homo sapiens
Source text: as §1

U251 = conditions: for GI50: Homo sapiens, U-251, CNS
Source text: as §1

SK-MEL-2 = conditions: Melanoma; for GI50: Homo sapiens
Source text: as §1

EKVX = conditions: NSCL; for GI50: Homo sapiens
Source text: as §1

OVCAR-5 = conditions: Ovarian; for GI50: Homo sapiens
Source text: as §1

NCI-H460 = conditions: NSCL; for GI50: Homo sapiens
Source text: as §1

A549 = conditions: NSCL; for GI50: Homo sapiens
Source text: as §1

SW-620 = conditions: Colon; for GI50: Homo sapiens
Source text: as §1

TK-10 = conditions: Renal; for GI50: Homo sapiens
Source text: as §1

[1] = GI50 in nM, read-out: Log(GI50) (converted)

`CC(C)(C)[C@H](c1nc(-c2cc(F)ccc2F)cn1Cc1ccccc1)N(CC[C@H](N)CF)C(=O)CO` [Compound IIa] was tested, and the GI50 (RXF 393; [1]) was 10 nM, the GI50 (RXF 393; read-out: GI50) was 10 nM and the “Differential vs mean Log(GI50)” value (RXF 393) was −0.669. The GI50 (NCI-H322M; [1]) was 10 nM, the GI50 (NCI-H322M; read-out: GI50) was 10 nM and the “Differential vs mean Log(GI50)” value (NCI-H322M) was −0.669. For the same compound, the GI50 (OVCAR-8; [1]) was 0.324 nM, the GI50 (OVCAR-8; read-out: GI50) was 0.324 nM and the “Differential vs mean Log(GI50)” value (OVCAR-8) was 0.821. For the same compound, the GI50 (K-562; [1]) was 0.218 nM, the GI50 (K-562; read-out: GI50) was 0.218 nM and the “Differential vs mean Log(GI50)” value (K-562; Leukemia) was 0.993. For the same compound, the “Differential vs mean Log(GI50)” value (BT-474) was −0.669, the GI50 (BT-474; [1]) was 10 nM and the GI50 (BT-474; read-out: GI50) was 10 nM. For the same compound, the GI50 (MOLT-4; [1]) was 0.331 nM, the GI50 (MOLT-4; read-out: GI50) was 0.331 nM and the “Differential vs mean Log(GI50)” value (MOLT-4) was 0.811. For the same compound, the “Differential vs mean Log(GI50)” value (MDA-MB-231) was 0.809, the GI50 (MDA-MB-231; [1]) was 0.333 nM and the GI50 (MDA-MB-231; read-out: GI50) was 0.333 nM. For the same compound, the “Differential vs mean Log(GI50)” value (U251; CNS) was 0.953, the GI50 (U251; [1]) was 0.239 nM and the GI50 (U251; read-out: GI50) was 0.239 nM. For the same compound, the GI50 (SK-MEL-2; [1]) was 2.77 nM, the GI50 (SK-MEL-2; read-out: GI50) was 2.77 nM and the “Differential vs mean Log(GI50)” value (SK-MEL-2) was −0.112. The GI50 (EKVX; [1]) was 10 nM, the GI50 (EKVX; read-out: GI50) was 10 nM and the “Differential vs mean Log(GI50)” value (EKVX) was −0.669. The GI50 (OVCAR-5; [1]) was 10 nM, the GI50 (OVCAR-5; read-out: GI50) was 10 nM and the “Differential vs mean Log(GI50)” value (OVCAR-5) was −0.669. The GI50 (NCI-H460; [1]) was 0.378 nM, the GI50 (NCI-H460; read-out: GI50) was 0.378 nM and the “Differential vs mean Log(GI50)” value (NCI-H460) was 0.754. The GI50 (A549; [1]) was 10 nM, the GI50 (A549; read-out: GI50) was 10 nM and the “Differential vs mean Log(GI50)” value (A549) was −0.669. The “Differential vs mean Log(GI50)” value (SW-620) was 0.958, the GI50 (SW-620; [1]) was 0.236 nM and the GI50 (SW-620; read-out: GI50) was 0.236 nM. For the same compound, the GI50 (TK-10; [1]) was 10 nM, the GI50 (TK-10; read-out: GI50) was 10 nM and the “Differential vs mean Log(GI50)” value (TK-10) was −0.669.
